Laboratory results as given in article PMC3891835 (American journal of obstetrics and gynecology, 2012).
Structures can show the parent of a compound that is named as a salt.

Assays:
[1] = cited from earlier work
P-glycoprotein (P-gp) [2] = biological target: T1, P-glycoprotein (P-gp) (Homo sapiens, UniProt P08183); assay: biochemical
P-glycoprotein (P-gp) [3] = biological target: T1, P-glycoprotein (P-gp); settings: placental IOV; concentration range tested 100 to 1000 μM; 40 nM [3H]-paclitaxel

T1 sequence (P08183 whole entry): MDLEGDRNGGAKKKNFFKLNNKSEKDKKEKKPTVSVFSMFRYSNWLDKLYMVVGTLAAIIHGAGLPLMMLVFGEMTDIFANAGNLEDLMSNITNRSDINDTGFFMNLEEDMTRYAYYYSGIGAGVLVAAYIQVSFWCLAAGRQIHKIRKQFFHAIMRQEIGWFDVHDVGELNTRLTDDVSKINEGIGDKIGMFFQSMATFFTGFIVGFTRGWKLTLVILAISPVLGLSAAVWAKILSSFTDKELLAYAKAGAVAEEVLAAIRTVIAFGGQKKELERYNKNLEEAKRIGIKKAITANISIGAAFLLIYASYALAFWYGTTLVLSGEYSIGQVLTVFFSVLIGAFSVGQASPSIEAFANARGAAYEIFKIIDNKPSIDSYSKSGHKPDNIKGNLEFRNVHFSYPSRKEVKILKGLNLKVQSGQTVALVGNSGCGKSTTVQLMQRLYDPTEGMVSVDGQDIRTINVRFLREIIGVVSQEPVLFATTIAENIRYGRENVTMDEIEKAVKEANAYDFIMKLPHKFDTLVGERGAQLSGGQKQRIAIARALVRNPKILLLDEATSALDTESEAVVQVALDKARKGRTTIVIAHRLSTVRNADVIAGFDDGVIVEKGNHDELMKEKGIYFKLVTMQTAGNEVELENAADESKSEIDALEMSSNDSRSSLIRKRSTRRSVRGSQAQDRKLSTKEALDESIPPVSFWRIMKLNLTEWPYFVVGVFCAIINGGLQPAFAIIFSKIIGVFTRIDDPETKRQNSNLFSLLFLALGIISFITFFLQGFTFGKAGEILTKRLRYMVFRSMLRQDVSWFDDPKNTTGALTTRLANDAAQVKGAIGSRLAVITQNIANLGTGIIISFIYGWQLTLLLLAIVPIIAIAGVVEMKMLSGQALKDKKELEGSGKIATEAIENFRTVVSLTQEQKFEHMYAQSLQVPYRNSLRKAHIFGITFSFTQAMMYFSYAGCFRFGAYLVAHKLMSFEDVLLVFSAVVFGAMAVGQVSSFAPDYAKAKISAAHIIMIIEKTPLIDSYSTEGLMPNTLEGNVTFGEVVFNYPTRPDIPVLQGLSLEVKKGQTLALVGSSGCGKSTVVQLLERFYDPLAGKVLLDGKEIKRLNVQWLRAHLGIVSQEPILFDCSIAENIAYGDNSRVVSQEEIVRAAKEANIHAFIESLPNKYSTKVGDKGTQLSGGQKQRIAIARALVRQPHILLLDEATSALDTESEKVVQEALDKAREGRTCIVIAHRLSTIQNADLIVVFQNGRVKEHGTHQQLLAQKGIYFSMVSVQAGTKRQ

SMILES	binding to proteins [1] [%]	IC50 (P-glycoprotein (P-gp) [2]) [µM]	effect on the ATP-dependent uptake of [3H]-paclitaxel by IOV (P-glycoprotein (P-gp) [3])
CCCCCCCCCCNCCN[C@@]1(C)C[C@H](O[C@H]2[C@H](Oc3c4cc5cc3Oc3ccc(cc3Cl)[C@@H](O)[C@@H](NC(=O)[C@@H](CC(C)C)NC)C(=O)N[C@@H](CC(N)=O)C(=O)N[C@H]5C(=O)N[C@H]3C(=O)N[C@H](C(=O)N[C@H](C(=O)O)c5cc(O)c(CNCP(=O)(O)O)c(O)c5-c5cc3ccc5O)[C@H](O)c3ccc(c(Cl)c3)O4)O[C@H](CO)[C@@H](O)[C@@H]2O)O[C@@H](C)[C@H]1O [telavancin, Telavancin]	93	50	–
CN[C@H](CC(C)C)C(=O)N[C@H]1C(=O)N[C@@H](CC(N)=O)C(=O)N[C@H]2C(=O)N[C@H]3C(=O)N[C@H](C(=O)N[C@H](C(=O)O)c4cc(O)cc(O)c4-c4cc3ccc4O)[C@H](O)c3ccc(c(Cl)c3)Oc3cc2cc(c3O[C@@H]2O[C@H](CO)[C@@H](O)[C@H](O)[C@H]2O[C@H]2C[C@](C)(N)[C@H](O)[C@H](C)O2)Oc2ccc(cc2Cl)[C@H]1O [vancomycin, vancomycin hydrochloride]	50	–	did not affect
